Measured values as given in ChEMBL document CHEMBL1201862, “PubChem BioAssay data set” (2004).
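96-well plates; 48 h exposure; 5 concentrations. Endpoints by linear interpolation between flanking doses. Not reached: highest tested concentration assigned. The concentration for 50% growth inhibition is given as GI50.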 The source made the active and inactive calls. No stated cut-off is given here; in the data, active = GI50 up to about 1.1 µM and inactive = higher.

Key:
Assay in all cases: inhibition of tumour cell growth, NCI panel, 48 h
OVCAR-8 = tested on: OVCAR-8
HCT-116 = tested on: HCT-116
UACC-257 = tested on: UACC-257
SK-MEL-5 = tested on: SK-MEL-5
M14 = tested on: M14
SR = tested on: SR
NCI-H460 = tested on: NCI-H460
SK-OV-3 = tested on: SK-OV-3
RPMI-8226 = tested on: RPMI-8226
NCI-H23 = tested on: NCI-H23
SN12C = tested on: SN12C
LOX IMVI = tested on: LOX IMVI
COLO 205 = tested on: COLO 205
MOLT-4 = tested on: MOLT-4
A498 = tested on: A498
786-0 = tested on: 786-0
SF-268 = tested on: SF-268
U-251 = tested on: U-251

Compound	GI50 (OVCAR-8)	GI50 (HCT-116)	GI50 (UACC-257)	GI50 (SK-MEL-5)	GI50 (M14)	GI50 (SR)	GI50 (NCI-H460)	GI50 (SK-OV-3)	GI50 (RPMI-8226)	GI50 (NCI-H23)	GI50 (SN12C)	GI50 (LOX IMVI)	GI50 (COLO 205)	GI50 (MOLT-4)	GI50 (A498)	GI50 (786-0)	GI50 (SF-268)	GI50 (U-251)
COC1OC(CBr)C(OC(c2ccccc2)(c2ccccc2)c2ccccc2)C(OC(c2ccccc2)(c2ccccc2)c2ccccc2)C1OC(c1ccccc1)(c1ccccc1)c1ccccc1 (centres undefined)	27.1 µM (inactive)	37.6 µM (inactive)	> 100 µM (inactive)	66.5 µM (inactive)	51.8 µM (inactive)	> 100 µM (inactive)	46.1 µM (inactive)	23 µM (inactive)	65.3 µM (inactive)	87.3 µM (inactive)	41.3 µM (inactive)	> 100 µM (inactive)	> 100 µM (inactive)	> 100 µM (inactive)	78.2 µM (inactive)	19.4 µM (inactive)	63.5 µM (inactive)	
COc1cc(Cn2c3c(c4cc(O)ccc42)C(=O)c2ccccc2C3=O)cc(OC)c1	3.55 µM (inactive)	0.881 µM (active)	39.2 µM (inactive)	4.29 µM (inactive)	16.3 µM (inactive)	0.494 µM (active)	5.61 µM (inactive)	2.32 µM (inactive)	0.337 µM (active)	8.57 µM (inactive)	5.09 µM (inactive)	31.7 µM (inactive)	12.6 µM (inactive)	16.3 µM (inactive)	15.4 µM (inactive)	2.37 µM (inactive)	2.88 µM (inactive)	3.6 µM (inactive)
O=C(Cc1ccccc1)Nn1c(-c2ccccc2)nc2ccccc2c1=O	> 100 µM (inactive)	> 100 µM (inactive)	> 100 µM (inactive)	2.38 µM (inactive)	> 100 µM (inactive)	> 100 µM (inactive)	> 100 µM (inactive)	> 100 µM (inactive)	> 100 µM (inactive)	> 100 µM (inactive)	> 100 µM (inactive)	> 100 µM (inactive)	> 100 µM (inactive)	> 100 µM (inactive)	62.7 µM (inactive)	> 100 µM (inactive)	> 100 µM (inactive)	> 100 µM (inactive)
Cc1ccc(S(=O)(=O)O)cc1.c1cc2c(c(NC3=NCCN3)c1)CCCC2	> 100 µM (inactive)	> 100 µM (inactive)	> 100 µM (inactive)	> 100 µM (inactive)	> 100 µM (inactive)	> 100 µM (inactive)	> 100 µM (inactive)	> 100 µM (inactive)	> 100 µM (inactive)	> 100 µM (inactive)	> 100 µM (inactive)	> 100 µM (inactive)	> 100 µM (inactive)	> 100 µM (inactive)	> 100 µM (inactive)	> 100 µM (inactive)	> 100 µM (inactive)	> 100 µM (inactive)
Oc1ccc(/N=C/c2ccc(/C=N/c3ccc(O)cc3)cc2)cc1	13.8 µM (inactive)	14.8 µM (inactive)	16.8 µM (inactive)	15 µM (inactive)	17.1 µM (inactive)	6.44 µM (inactive)	24.4 µM (inactive)	16.9 µM (inactive)	10.1 µM (inactive)	17.1 µM (inactive)	14.9 µM (inactive)	16.1 µM (inactive)	18.5 µM (inactive)	3.88 µM (inactive)	24.3 µM (inactive)	15.3 µM (inactive)	15.5 µM (inactive)	14.5 µM (inactive)
CCNC(=O)Cc1nc2c(N)ncnc2n1C1OC(CO)C(O)C1O (centres undefined)	> 100 µM (inactive)	> 100 µM (inactive)	> 100 µM (inactive)	> 100 µM (inactive)	> 100 µM (inactive)	> 100 µM (inactive)	> 100 µM (inactive)	39 µM (inactive)	> 100 µM (inactive)	> 100 µM (inactive)	> 100 µM (inactive)	> 100 µM (inactive)	74 µM (inactive)	> 100 µM (inactive)	> 100 µM (inactive)	> 100 µM (inactive)	> 100 µM (inactive)	> 100 µM (inactive)
O=C(CSc1nc(O)nc2[nH]cnc12)Nc1ccccc1	> 100 µM (inactive)	91.2 µM (inactive)	86.9 µM (inactive)	46.7 µM (inactive)	> 100 µM (inactive)	51.6 µM (inactive)	> 100 µM (inactive)	> 100 µM (inactive)	> 100 µM (inactive)	> 100 µM (inactive)	48.5 µM (inactive)	54.5 µM (inactive)	> 100 µM (inactive)	93.5 µM (inactive)	76.7 µM (inactive)	57.5 µM (inactive)	69.2 µM (inactive)	33.1 µM (inactive)
NP(=O)(OCC1=CC(=O)c2ccccc2C1=O)N(CCBr)CCBr (centres undefined)	12.1 µM (inactive)	9.55 µM (inactive)	1.87 µM (inactive)	1.31 µM (inactive)	2.01 µM (inactive)	0.399 µM (active)	1.79 µM (inactive)	14.3 µM (inactive)	11.6 µM (inactive)	3.03 µM (inactive)	10.6 µM (inactive)	3.96 µM (inactive)	2.2 µM (inactive)	0.634 µM (active)	20.8 µM (inactive)	5.82 µM (inactive)	11.2 µM (inactive)	11.5 µM (inactive)
c1cc(C[S+]2CCCC2)ccc1C[S+]1CCCC1	> 100 µM (inactive)	> 100 µM (inactive)	> 100 µM (inactive)	> 100 µM (inactive)	> 100 µM (inactive)	> 100 µM (inactive)	> 100 µM (inactive)	> 100 µM (inactive)	> 100 µM (inactive)	> 100 µM (inactive)	> 100 µM (inactive)	> 100 µM (inactive)	> 100 µM (inactive)	> 100 µM (inactive)	29.2 µM (inactive)	> 100 µM (inactive)	> 100 µM (inactive)	> 100 µM (inactive)
CC(=O)OC1C(C)OC(OC(=O)C2CCC3C(C2)OC2(CC(OC(=O)/C=C/c4ccccc4)C(C)CO2)C32CO2)C(OC2OC(C)C(O)C(OC(C)=O)C2O)C1O (centres undefined)	< 0.01 µM (active)	< 0.01 µM (active)	< 0.01 µM (active)	< 0.01 µM (active)	< 0.01 µM (active)	< 0.01 µM (active)	< 0.01 µM (active)	< 0.01 µM (active)	< 0.01 µM (active)	< 0.01 µM (active)	< 0.01 µM (active)	< 0.01 µM (active)	< 0.01 µM (active)	< 0.01 µM (active)	0.0205 µM (active)	< 0.01 µM (active)	< 0.01 µM (active)	< 0.01 µM (active)
COc1cc2ccc(/C=C\[N+](=O)[O-])cc2cc1OC	3.12 µM (inactive)	2.34 µM (inactive)	3.11 µM (inactive)	4.76 µM (inactive)	2.65 µM (inactive)	1.98 µM (inactive)	15.7 µM (inactive)	14.3 µM (inactive)	1.67 µM (inactive)	2.5 µM (inactive)	2.37 µM (inactive)	1.79 µM (inactive)	4.07 µM (inactive)	5.09 µM (inactive)	15.5 µM (inactive)	1.68 µM (inactive)	3.36 µM (inactive)	2.65 µM (inactive)
CN(C)CCCN1c2ccccc2CCc2cccc([N+](=O)[O-])c21	15.9 µM (inactive)	15.6 µM (inactive)	20.4 µM (inactive)	16.4 µM (inactive)	15.7 µM (inactive)	13.6 µM (inactive)	18.2 µM (inactive)	28.6 µM (inactive)	11.1 µM (inactive)	34.4 µM (inactive)	21.3 µM (inactive)	16.6 µM (inactive)	17.8 µM (inactive)	13.7 µM (inactive)	19.5 µM (inactive)	15.3 µM (inactive)	23.5 µM (inactive)	18.2 µM (inactive)
O=C1c2ccccc2-c2c1c1ccccc1c(=O)n2CCO	9.38 µM (inactive)	4.83 µM (inactive)	> 79.6 µM (inactive)	8.81 µM (inactive)	> 100 µM (inactive)	2.24 µM (inactive)	1.82 µM (inactive)	30.8 µM (inactive)	> 26.9 µM (inactive)	14.1 µM (inactive)	10.8 µM (inactive)	5.28 µM (inactive)	4.9 µM (inactive)	2.14 µM (inactive)	35 µM (inactive)	6.03 µM (inactive)	19.1 µM (inactive)	8.61 µM (inactive)
CC(=O)OC1COC(Nc2nc(N)n(C)c(=O)c2N=O)C(OC(C)=O)C1OC(C)=O (centres undefined)	> 10 µM (inactive)	> 10 µM (inactive)	> 10 µM (inactive)	> 10 µM (inactive)	> 10 µM (inactive)	> 10 µM (inactive)	> 10 µM (inactive)	> 10 µM (inactive)	> 10 µM (inactive)	> 10 µM (inactive)	> 10 µM (inactive)	> 10 µM (inactive)	> 10 µM (inactive)	> 10 µM (inactive)	> 10 µM (inactive)	> 10 µM (inactive)	> 10 µM (inactive)	> 10 µM (inactive)
COc1ccccc1NC1Oc2cc3c(cc2C(c2cc(OC)c(OC)c(OC)c2)C1C)OCO3 (centres undefined)	4.69 µM (inactive)	2.42 µM (inactive)	8.17 µM (inactive)	0.769 µM (active)	3.26 µM (inactive)	1.03 µM (active)	4.09 µM (inactive)	10.5 µM (inactive)	1.93 µM (inactive)	4.46 µM (inactive)	5.57 µM (inactive)	6.62 µM (inactive)	1.95 µM (inactive)	3.8 µM (inactive)	4.9 µM (inactive)	3.5 µM (inactive)	3.62 µM (inactive)	2.92 µM (inactive)
